This is an account of results in patent US12668803B2, “Glypican-3-specific modified aptamer and use thereof” (APTAMER SCIENCES INC., priority 2019, dated 2026).

Holding throughout (format): cell-based
The subject of series [1] is hepatoma cells (Hep3B, HepG2). Briefly: Cell cycle analysis (propidium iodide, FACS). The conditions noted are these: 4 hr treatment, FIGS. 25 and 26. The protocol:
(§1) To analyze the effects of combi 4 and combi 5 bound with three or five gemcitabines on the cell cycle of hepatoma cells, cell cycle analysis was performed. In detail, Hep3B, HepG2, and A431 cells were seeded in a 6-well plate at a density of 1×10^6/ml, and cultured using a DMEM medium containing 10% FBS and 1% antibiotics (penicillin/streptomycin) under conditions of 5% CO2 and 37° C., respectively. Next day, 100 μM of the modified aptamer stock was mixed with 5×SB18 buffer to prepare the aptamer at a concentration of 80 μM, and heated at 95° C. for 5 min, and then cooled at room temperature for 15 min or more. The medium was removed from the cultured cells, and replaced by a serum-free medium, and cultured under conditions of 37° C. and 5% CO2 for 1 hr. The serum-free medium was removed, and then the cells were washed with 2 ml of 1×PBS. 2 ml of KRPH buffer was added, and cultured under conditions of 37° C. and 5% CO2 for 1 hr. The aptamer was added, and cultured under conditions of 37° C. and 5% CO2 for 4 hr. The KRPH buffer was removed, and 2 ml of 1×PBS was added thereto to perform washing, and then PBS was removed. 2 ml of 1×PBS was added, and cells were scraped using a scraper, and collected in FACs tubes, followed by centrifugation at 4° C. and 2000 rpm for 4 minutes. 1/500-fold diluted RNAase A and propidium iodide diluted with PBS at a concentration of 50 μg/ml were added to the FACs tubes at a volume of 500 μL, followed by pipetting. Incubation was performed at room temperature for 30 min while blocking the light, and then cell cycle was measured.

The subject of series [2] is squamous cell carcinoma cells (A431). Briefly: Cell cycle analysis (propidium iodide, FACS). The conditions noted are these: 4 hr treatment, FIG. 27. The protocol:
as §1

The test system of the next series is HepG2. The experiment in a line: Cellular internalization of gemcitabine-bound chemically optimized aptamers. Conditions: analysis in HepG2 and A431 cells, FIGS. 20 to 22. The protocol:
[The source words this procedure for another cell line and reports this cell line under the same test.] 5 aptamer libraries prepared by truncating the 12-10 aptamer at various lengths [12-12 (35-mer), 12-11 (29-mer), 12-13 (24-mer), 12-14 (23-mer), and 12-15 (18-mer)] were subjected to cellular internalization analysis. In detail, a 6-well plate was prepared, and a round cover glass was placed in the 6-well plate. Huh-7 cells were cultured in the 6-well plate according to the method of Example 1-3. 5 μM of the aptamer stock was mixed with 5×SB18 buffer to prepare the aptamer at a concentration of 4 μM, and heated at 95° C. for 5 min, and then cooled at room temperature for 15 min or more. The next day, the medium was removed from the cultured cells, and a serum-free medium was added thereto, and cultured under conditions of 37° C. and 5% CO2 for 1 hr. The serum-free medium was removed, and then the cells were washed with 2 mL of 1×PBS. KRPH buffer was added, and cultured under conditions of 37° C. and 5% CO2 for 1 hr. 4 μM aptamer was diluted to 25 nM, and then cultured under conditions of 37° C. and 5% CO2 for 1 hr or 4 hr. Washing was repeated three times with 2 mL of 1×PBS. Washing was performed in a shaker at room temperature for 10 min while blocking the light. Thereafter, the cells were fixed by treatment with 4% paraformaldehyde at 4° C. for 10 min. Washing was repeated three times with 2 mL of 1×PBS. […]

As for “Combi 5 G(3) (DNA GNGAANGCGNNGAANNANWYSSSNNCAGNCANCAC; gemcitabines, 2'-OMe, 2'-F, BzdU, 3' idT; Combi 5 G(3); (1)..(1) G is 2-O-Methoxy-DNA.; (2)..(2) n is BzdU.; (3)..(3) G is 2-O-Methoxy-DNA.; (4)..(4) A is 2-Fluorine-DNA.; (5)..(5) A is 2-Fluorine-DNA.; (6)..(6) n is BzdU.; (10)..(10) n is BzdU.; (11)..(11) n is BzdU.; (12)..(12) G is 2-Fluorine-DNA.; (13)..(13) A is 2-Fluorine-DNA.; (14)..(14) A is 2-O-Methoxy-DNA.; (15)..(15) n is BzdU.; (16)..(16) n is BzdU.; (17)..(17) A is 2-O-Methox)”, the figures for the cell cycle arrest entry in series [1] and in series [2] were “arrested hepatoma cells at the G1/S phase” and “no cell cycle arrest”, respectively. Also, the cellular internalization result with HepG2 is given as “excellent cellular internalization”.
